Source: US9447087B2, “Galactokinase inhibitors for the treatment and prevention of associated diseases and disorders” (UNIVERSITY OF UTAH RESEARCH FOUNDATION, priority 2011, dated 2016)
In brackets after ≈: the same amount, converted by molar mass.

Molecular target: GALK (Homo sapiens (Human), UniProt P51570)
Assay: primary qHTS assay for inhibitors of GALK (KinaseGlo ATP depletion)
Format: biochemical
Conditions: 5 nM GALK, 35 μM ATP, 1 hr incubation
Protocol: Assay details and protocol: The primary assay monitored ATP depletion using Promega's KinaseGlo™ technology, where ATP levels are measured through luminescence generated from firefly luciferase, a bioluminescent ATP-dependent enzymes. […] This was used as the positive control for the assay. […]

GALK, sequence (P51570 whole entry): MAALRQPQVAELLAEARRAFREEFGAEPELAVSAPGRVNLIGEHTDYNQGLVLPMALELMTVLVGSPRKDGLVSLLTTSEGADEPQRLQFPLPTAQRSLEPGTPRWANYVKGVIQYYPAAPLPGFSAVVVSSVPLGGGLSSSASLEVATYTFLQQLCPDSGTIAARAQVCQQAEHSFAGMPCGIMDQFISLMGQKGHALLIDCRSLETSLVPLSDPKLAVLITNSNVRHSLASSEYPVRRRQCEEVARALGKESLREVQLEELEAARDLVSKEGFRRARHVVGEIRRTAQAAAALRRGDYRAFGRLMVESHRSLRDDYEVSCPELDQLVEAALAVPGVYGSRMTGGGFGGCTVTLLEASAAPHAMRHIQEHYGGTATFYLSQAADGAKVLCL

Structure (SMILES)	IC50 [µM]
O=C1CCCC2=C1C1(CCCC1)N=C(Nc1nc3cc(Cl)ccc3o1)N2 [Compound 20]	6.68
Cc1ccc2oc(NC3=NC4(CCCC4)C4=C(CCCC4=O)N3)nc2c1 [Compound 26]	5.95

Further lines, results first:

IC50 [µM]	Structure (SMILES)
7.49	O=C1CCCC2=C1C1(CCCC1)N=C(Nc1nc3cc(Br)ccc3o1)N2 [Compound 27]
21.1	Cc1ccc2nc(NC3=NC4(CCCC4)C4=C(CCCC4=O)N3)oc2c1 [Compound 28]
37.5	O=C1CCCC2=C1C1(CCCC1)N=C(Nc1nc3cc4ccccc4cc3o1)N2 [Compound 33]
74.9	Cn1c(NC2=NC3(CCCC3)C3=C(CCCC3=O)N2)nc2ccccc21 [Compound 35]

Test system: not listed separately
Assay: Solubility in PBS
Format: physicochemical
Conditions: aqueous buffer, pH 7.4, 23° C.

Structure (SMILES)	solubility [µg/mL]
O=C1CCCC2=C1C1(CCCC1)N=C(Nc1nc3ccccc3o1)N2 [NCGC00187642]	2.3 (≈ 6.84 µM)

Molecular target: CDP-ME kinase (Escherichia coli (strain K12), UniProt P62615)
Sequence (P62615 whole entry, looked up): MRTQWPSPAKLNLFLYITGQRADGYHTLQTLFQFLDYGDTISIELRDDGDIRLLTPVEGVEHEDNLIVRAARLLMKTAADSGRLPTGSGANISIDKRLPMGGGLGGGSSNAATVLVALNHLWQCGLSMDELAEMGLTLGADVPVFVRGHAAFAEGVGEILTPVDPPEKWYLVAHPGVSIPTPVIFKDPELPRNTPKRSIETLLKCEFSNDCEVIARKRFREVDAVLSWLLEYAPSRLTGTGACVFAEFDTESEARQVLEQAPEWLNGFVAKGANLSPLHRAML
Assay: selectivity against CDP-ME kinase (bioluminescent Kinase Glo ATP depletion, PubChem ID 2506)
Format: biochemical
Conditions: up to 57 μM
Protocol: The selectivity for these analogs against CDP-ME kinase, another member of the GHMP kinase family, was performed using a bioluminescent Kinase Glo™ assay that detects ATP depletion after kinase reaction (PubChem ID 2506). […] All analogs were also tested for cytotoxicity using Promega CellTiter Glo on HEK293 cells that were treated with compounds and analyzed after 48 hours. […] In addition, the ability of these compounds to undergo redox recycling, which may lead to false positive results, was also evaluated using an endpoint colorimetric assay; this assay detects the presence of H2O2 in the kinase reaction buffer (PubChem ID 2502).

Structure (SMILES)	activity against CDP-ME kinase
O=C1CCCC2=C1C1(CCCC1)N=C(Nc1nc3ccccc3o1)N2 [NCGC00187642]	no activity

Test system: HEK293 cells
Assay: cytotoxicity, Promega CellTiter Glo on HEK293 cells (PubChem ID 2547)
Format: cell-based
Conditions: analyzed after 48 hours
Protocol: The selectivity for these analogs against CDP-ME kinase, another member of the GHMP kinase family, was performed using a bioluminescent Kinase Glo™ assay that detects ATP depletion after kinase reaction (PubChem ID 2506). […] All analogs were also tested for cytotoxicity using Promega CellTiter Glo on HEK293 cells that were treated with compounds and analyzed after 48 hours.

Structure (SMILES)	cytotoxic effect on HEK293 cells
O=C1CCCC2=C1C1(CCCC1)N=C(Nc1nc3cc(Cl)ccc3o1)N2 [Compound 20]	no cytotoxic effect
Cc1ccc2oc(NC3=NC4(CCCC4)C4=C(CCCC4=O)N3)nc2c1 [Compound 26]	no cytotoxic effect
O=C1CCCC2=C1C1(CCCC1)N=C(Nc1nc3cc(Br)ccc3o1)N2 [Compound 27]	no cytotoxic effect
Cc1ccc2nc(NC3=NC4(CCCC4)C4=C(CCCC4=O)N3)oc2c1 [Compound 28]	no cytotoxic effect
O=C1CCCC2=C1C1(CCCC1)N=C(Nc1nc3cc4ccccc4cc3o1)N2 [Compound 33]	no cytotoxic effect
Cn1c(NC2=NC3(CCCC3)C3=C(CCCC3=O)N2)nc2ccccc21 [Compound 35]	no cytotoxic effect
